The values that follow come from patent US20050090522A1 (priority 2001, published 2005).

A word on the EC50: it is the concentration giving half of the maximal effect.

For one test, the system named is HIV-1. The experiment in a line: HIV-1 single-round infectious luciferase reporter virus (pseudotype) assay in HeLa CD4 CCR5 cells. It is filed as cell-based. The settings on record: Human immunodeficiency virus 1, HeLa-CD4/CCR5, read-out: EC50 Group from TABLE 1, HeLa CD4 CCR5 cells, single-round infectious luciferase reporter virus. In short, it runs like this:
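HeLa CD4 CCR5 cells (5×10^4/well, DMEM + 10% FBS) were treated with compound (final <10 μM) and infected with single-round luciferase reporter virus made in 293 cells, at MOI ~0.01. Luciferase was read 72 h post infection. EC50 came from 10-concentration percent-inhibition curves fitted to a four-parameter logistic model.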
(In general: A reporter such as luciferase makes a cellular process visible.)
As for `CCOC(=O)c1cc(-c2ncc(F)c3c(C(=O)C(=O)N4CCN(C(=O)c5ccccc5)CC4)c[nH]c23)n[nH]1` [Example 209], the EC50 is < 1000 nM.

Turning to `O=C(NCCN1CCOCC1)c1cc(-c2ncc(F)c3c(C(=O)C(=O)N4CCN(C(=O)c5ccccc5)CC4)c[nH]c23)n[nH]1` [Example 213], the EC50 was < 1000 nM. The same measure, in the same setting: as for `O=C(C(=O)N1CCN(C(=O)c2ccccc2)CC1)c1c[nH]c2c(-n3cncn3)ncc(F)c12` [Example 215], the figure is < 1000 nM; as for `O=C(C(=O)N1CCN(C(=O)c2ccccc2)CC1)c1c[nH]c2c(-n3ccnc3)ncc(F)c12` [Example 218], < 1000 nM. Still for that read-out and setting: as for `O=C(C(=O)N1CCN(C(=O)c2ccccc2)CC1)c1c[nH]c2c(-n3cccn3)ncc(F)c12` [Example 219], the figure is < 1000 nM. On the same count and under the same terms, as for `COc1cnc(-n2nccc2C)c2[nH]cc(C(=O)C(=O)N3CCN(C(=O)c4ccccc4)CC3)c12` [Example 240, 1-benzoyl-4-[(4-methoxy-7-(5-methyl-pyrazol-1-yl)-6-azaindol-3-yl)-oxoacetyl]piperazine], the figure is < 1000 nM. Regarding `COc1cnc(-n2ccc(C(C)(C)O)n2)c2[nH]cc(C(=O)C(=O)N3CCN(C(=O)c4ccccc4)CC3)c12` [Example 247, 1-benzoyl-4-[(4-methoxy-7-(3-(1-hydroxyl-1-methylethyl)-pyrazol-1-yl)-6-azaindol-3-yl)-oxoacetyl]piperazine], the EC50 is < 1000 nM. Same read-out and setting: as for `COc1cnc(-n2ccc(CCO)n2)c2[nH]cc(C(=O)C(=O)N3CCN(C(=O)c4ccccc4)CC3)c12` [Example 248, 1-benzoyl-4-[(4-methoxy-7-(3-(3-hydroxylethyl)-pyrazol-1-yl)-6-azaindol-3-yl)-oxoacetyl]piperazine], the figure is < 1000 nM. On the same count and under the same terms, in the case of `COc1cnc(-n2ccc(C(C)C)n2)c2[nH]cc(C(=O)C(=O)N3CCN(C(=O)c4ccccc4)CC3)c12` [Example 249, 1-benzoyl-4-[(4-methoxy-7-(3-iso-propyl-pyrazol-1-yl)-6-azaindol-3-yl)-oxoacetyl]piperazine] it was < 1000 nM; in that of `CCCCCc1ccn(-c2ncc(OC)c3c(C(=O)C(=O)N4CCN(C(=O)c5ccccc5)CC4)c[nH]c23)n1` [Example 250, 1-benzoyl-4-[(4-methoxy-7-(3-n-pentyl-pyrazol-1-yl)-6-azaindol-3-yl)-oxoacetyl]piperazine], < 1000 nM; in that of `COc1cnc(-n2nccc2N)c2[nH]cc(C(=O)C(=O)N3CCN(C(=O)c4ccccc4)CC3)c12` [Example 252, 1-benzoyl-4-[(4-methoxy-7-(5-amino-pyrazol-1-yl)-6-azaindol-3-yl)-oxoacetyl]piperazine], < 1000 nM.

The test is the same for the next values; noted with them: Human immunodeficiency virus 1, HeLa-CD4/CCR5, read-out: EC50 Group from Table 1, Table 2-1; HeLa CD4 CCR5 cells, single-round luciferase reporter virus.
Regarding `CCCc1ccn(-c2ncc(OC)c3c(C(=O)C(=O)N4CCN(C(=O)c5ccccc5)[C@H](C)C4)c[nH]c23)n1` [Example 231, (R)-1-benzoyl-2-methyl-4-[(4-methoxy-7-(3-propyl-pyrazol-1-yl)-6-azaindol-3-yl)-oxoacetyl]piperazine], the EC50 was < 1000 nM. The same measure, in the same setting: in the case of `COc1cnc(-n2ccc(C3CCC3)n2)c2[nH]cc(C(=O)C(=O)N3CCN(C(=O)c4ccccc4)[C@H](C)C3)c12` [Example 232, (R)-1-benzoyl-2-methyl-4-[(4-methoxy-7-(3-cycloputyl-pyrazol-1-yl)-6-azaindol-3-yl)-oxoacetyl]piperazine] it was < 1000 nM. Consider `CCOc1ccn(-c2ncc(OC)c3c(C(=O)C(=O)N4CCN(C(=O)c5ccccc5)[C@H](C)C4)c[nH]c23)n1` [Example 233, (R)-1-benzoyl-2-methyl-4-[(4-methoxy-7-(3-ethoxy-pyrazol-1-yl)-6-azaindol-3-yl)-oxoacetyl]piperazine], for which the EC50 was < 1000 nM.

As to `COc1cnc(-n2ccc(CCC(=O)O)n2)c2[nH]cc(C(=O)C(=O)N3CCN(C(=O)c4ccccc4)[C@H](C)C3)c12` [Example 234, (R)-1-benzoyl-2-methyl-4-[(4-methoxy-7-(3-(2-hydroxylcarbonylethan-1-yl)-pyrazol-1-yl)-6-azaindol-3-yl)-oxoacetyl]piperazine], the EC50 was < 1000 nM. As for `COc1cnc(-n2ccc(C(C)O)n2)c2[nH]cc(C(=O)C(=O)N3CCN(C(=O)c4ccccc4)[C@H](C)C3)c12` (stereo partly drawn) [Example 235, (R)-1-benzoyl-2-methyl-4-[(4-methoxy-7-(3-(1-hydroxylethyl)-pyrazol-1-yl)-6-azaindol-3-yl)-oxoacetyl]piperazine], the EC50 is < 1000 nM. Consider `COc1cnc(-n2cc(CO)cn2)c2[nH]cc(C(=O)C(=O)N3CCN(C(=O)c4ccccc4)C[C@H]3C)c12` [Example 237, (R)-1-benzoyl-3-methyl-4-[(4-methoxy-7-(4-hydroxylmethyl-pyrazol-1-yl)-6-azaindol-3-yl)-oxoacetyl]piperazine], for which the EC50 was < 1000 nM. Still for that read-out and setting: as for `COCc1ccn(-c2ncc(OC)c3c(C(=O)C(=O)N4CCN(C(=O)c5ccccc5)[C@H](C)C4)c[nH]c23)n1` [Example 238, (R)-1-benzoyl-2-methyl-4-[(4-methoxy-7-(3-methoxymethyl-pyrazol-1-yl)-6-azaindol-3-yl)-oxoacetyl]piperazine], the figure is < 1000 nM; as for `COc1cnc(-n2ccc(CN(C)C)n2)c2[nH]cc(C(=O)C(=O)N3CCN(C(=O)c4ccccc4)[C@H](C)C3)c12` [Example 239, (R)-1-benzoyl-2-methyl-4-[(4-methoxy-7-(3-(N,N-dimethylamino)methyl-pyrazol-1-yl)-6-azaindol-3-yl)-oxoacetyl]piperazine], < 1000 nM; as for `COc1cnc(-n2nccc2C)c2[nH]cc(C(=O)C(=O)N3CCN(C(=O)c4ccccc4)[C@H](C)C3)c12` [Example 242, (R)-1-benzoyl-2-methyl-4-[(4-methoxy-7-(5-methyl-pyrazol-1-yl)-6-azaindol-3-yl)-oxoacetyl]piperazine], < 1000 nM. Same read-out and setting: in the case of `COc1cnc(-n2ccc(C(C)(C)C)n2)c2[nH]cc(C(=O)C(=O)N3CCN(C(=O)c4ccccc4)[C@H](C)C3)c12` [Example 243, (R)-1-benzoyl-2-methyl-4-[(4-methoxy-7-(3-t-butyl-pyrazol-1-yl)-6-azaindol-3-yl)-oxoacetyl]piperazine] it was < 1000 nM. Still for that read-out and setting: in the case of `COc1cnc(-n2ccc(C(F)(F)F)n2)c2[nH]cc(C(=O)C(=O)N3CCN(C(=O)c4ccccc4)[C@H](C)C3)c12` [Example 244, (R)-1-benzoyl-2-methyl-4-[(4-methoxy-7-(3-trifluoromethyl-pyrazol-1-yl)-6-azaindol-3-yl)-oxoacetyl]piperazine] it was < 1000 nM; in that of `COc1cnc(-n2nnc3ccccc32)c2[nH]cc(C(=O)C(=O)N3CCN(C(=O)c4ccccc4)[C@H](C)C3)c12` [Example 246, (R)-1-benzoyl-2-methyl-4-[(4-methoxy-7-(1,2,3-benzotriazol-1-yl)-6-azaindol-3-yl)-oxoacetyl]piperazine], < 1000 nM. In the case of `COc1cnc(-n2ccc(N)n2)c2[nH]cc(C(=O)C(=O)N3CCN(C(=O)c4ccccc4)[C@H](C)C3)c12` [Example 253, (R)-1-benzoyl-2-methyl-4-[(4-methoxy-7-(3-amino-pyrazol-1-yl)-6-azaindol-3-yl)-oxoacetyl]piperazine], the EC50 is < 1000 nM.

For `COc1cnc(-n2nccc2N)c2[nH]cc(C(=O)C(=O)N3CCN(C(=O)c4ccccc4)[C@H](C)C3)c12` [Example 254, (R)-1-benzoyl-2-methyl-4-[(4-methoxy-7-(5-amino-pyrazol-1-yl)-6-azaindol-3-yl)-oxoacetyl]piperazine], the concentration for a half-maximal effect (EC50) is < 1000 nM. Same read-out and setting: in the case of `COc1cnc(-n2ccc(O)n2)c2[nH]cc(C(=O)C(=O)N3CCN(C(=O)c4ccccc4)[C@H](C)C3)c12` [Example 257, (R)-1-benzoyl-2-methyl-4-[(4-methoxy-7-(3-hydroxylpyrazol-1-yl)-6-azaindol-3-yl)-oxoacetyl]piperazine] it was < 1000 nM. On the same count and under the same terms, as for `COc1cnc(-n2ccc(C(C)=O)n2)c2[nH]cc(C(=O)C(=O)N3CCN(C(=O)c4ccccc4)[C@H](C)C3)c12` [Example 259, (R)-1-benzoyl-2-methyl-4-[(4-methoxy-7-(3-methylcarbonyl-pyrazol-1-yl)-6-azaindol-3-yl)-oxoacetyl]piperazine], the figure is < 1000 nM; as for `COc1cnc(-n2ccc(-c3ccccc3)n2)c2[nH]cc(C(=O)C(=O)N3CCN(C(=O)c4ccccc4)[C@H](C)C3)c12` [Example 260, (R)-1-benzoyl-2-methyl-4-[(4-methoxy-7-(3-phenyl-pyrazol-1-yl)-6-azaindol-3-yl)-oxoacetyl]piperazine], < 1000 nM. Still for that read-out and setting: in the case of `COc1cnc(-n2cnc(NCc3cccnc3)n2)c2[nH]cc(C(=O)C(=O)N3CCN(C(=O)c4ccccc4)[C@H](C)C3)c12` [Example 261, (R)-1-benzoyl-2-methyl-4-[(4-methoxy-7-(3-(3-pyridinemethylamino)-1,2,4-triazol-1-yl)-6-azaindol-3-yl)-oxoacetyl]piperazine] it was < 1000 nM; in that of `COc1cnc(-n2ccc(NC(C)=O)n2)c2[nH]cc(C(=O)C(=O)N3CCN(C(=O)c4ccccc4)[C@H](C)C3)c12` [Example 262, (R)-1-benzoyl-2-methyl-4-[(4-methoxy-7-(3-acetylamino-pyrazol-1-yl)-6-azaindol-3-yl)-oxoacetyl]piperazine], < 1000 nM.

The test is the same for the next values; noted with them: Human immunodeficiency virus 1, HeLa-CD4/CCR5, read-out: EC50 Group from Table 1, Table 4; HeLa CD4 CCR5 cells, single-round luciferase reporter virus.
As to `CCOC(=O)c1cc(-c2ccnc3c(C(=O)C(=O)N4CCN(C(=O)c5ccccc5)CC4)c[nH]c23)n[nH]1` [Example 202, 5-{3-[2-(4-Benzoyl-piperazin-1-yl)-2-oxo-acetyl]-1H-pyrrolo[3,2-b]pyridin-7-yl}-2H-pyrazole-3-carboxylic acid ethyl ester], the EC50 was < 1000 nM. The same measure, in the same setting: as for `O=C(C(=O)N1CCN(C(=O)c2ccccc2)CC1)c1c[nH]c2c(-c3cc4ccccc4o3)ccnc12` [Example 203, 1-(7-benzofuran-2-yl-1H-pyrrolo[3,2-b]pyridin-3-yl)-2-(4-benzoyl-piperazin-1-yl)-ethane-1,2-dione], the figure is < 1000 nM.
